This experiment concerns the target Protein arginine deiminase 4 (PAD4) (Homo sapiens, UniProt Q9UM07). Nature of the experiment: PAD4 ammonia release assay. Format: biochemical. The procedure: 1) Compound preparation: The compounds were diluted to 80× final concentrations. 2) The compounds were transferred to a 384-well assay plate by Tecan. DMSO: 1.25%. 3) Preparation of 1×Assay buffer: 100 mM HEPES, PH=8.0, 2 mM CaCl2, 50 mM NaCl, 0.1 mM TCEP, 0.6 mg/ml BSA. 4) 2× enzyme working solution (PAD4:20 nM) was prepared with assay buffer, and 10 μL of the obtained working solution were added to the 384-well assay plates. 5) The plate was centrifuged at 1000 rpm for 1 min. 6) After the centrifuge, the plate was incubated at RT for 15 min. 7) 2×BAEE substrate mix (600 μM) was prepared with assay buffer and 10 μL of the obtained substrate mix were added to each well. 8) The plate was centrifuged at 1000 rpm for 1 min and then incubated at RT for 60 min. 9) 1.5× detection mix (DTT:4 mM, OPA:3 mM, EDTA: 30 mM) was prepared, and 10 μL of the mix were added to the plate. 10) The plate was centrifuged at 1000 rpm for 1 min and then incubated at RT for 120 min. 11) The 384-well plates were placed into the Envision (PerkinElmer) and the assay data were collected.
The percent (%) inhibition at each concentration of compound was calculated based on and relative to the signal in the HPE (50 μM ref. compound) and ZPE (1.25% DMSO) wells included within each assay plate. The HPE worked as 100% inhibition, and the ZPE worked as 0% inhibition. The concentrations and % inhibition values for tested compounds were plotted and the concentration of compound required for 50% inhibition (IC50) was determined with a Four-parameter logistic dose response equation. The endpoint value (IC50) for the reference compound was evaluated in each experiment as a quality control measure. If the endpoint value is within 3-fold of the expected value, then the experiment quality is deemed as acceptable. The results are provided in Table 1 below. ≤0.1 μM=“++++”; >0.1 and ≤0.5 μM=“+++”; >0.5 and ≤5.0 μM=“++”; >5.0 μM=“+”. “−”=not available.

Where [1] appears, read: PAD4 ammonia release assay, BAEE substrate, 60 min at RT, read-out: Average IC50 Abs.
The mark [2] stands for this setting: PAD4 activity comparison, read-out: PAD4 Ammonia assay IC50.

SMILES strings stand for the structures. Several values for one entry are separate records, joined by “and”; a condition that tells them apart may be missing. Equal values may be shown once. Read-outs that look alike come from different tables or passages of the source. Bounds are passed on as bounds.

Sequence of Protein arginine deiminase 4 (PAD4) (Q9UM07 whole entry): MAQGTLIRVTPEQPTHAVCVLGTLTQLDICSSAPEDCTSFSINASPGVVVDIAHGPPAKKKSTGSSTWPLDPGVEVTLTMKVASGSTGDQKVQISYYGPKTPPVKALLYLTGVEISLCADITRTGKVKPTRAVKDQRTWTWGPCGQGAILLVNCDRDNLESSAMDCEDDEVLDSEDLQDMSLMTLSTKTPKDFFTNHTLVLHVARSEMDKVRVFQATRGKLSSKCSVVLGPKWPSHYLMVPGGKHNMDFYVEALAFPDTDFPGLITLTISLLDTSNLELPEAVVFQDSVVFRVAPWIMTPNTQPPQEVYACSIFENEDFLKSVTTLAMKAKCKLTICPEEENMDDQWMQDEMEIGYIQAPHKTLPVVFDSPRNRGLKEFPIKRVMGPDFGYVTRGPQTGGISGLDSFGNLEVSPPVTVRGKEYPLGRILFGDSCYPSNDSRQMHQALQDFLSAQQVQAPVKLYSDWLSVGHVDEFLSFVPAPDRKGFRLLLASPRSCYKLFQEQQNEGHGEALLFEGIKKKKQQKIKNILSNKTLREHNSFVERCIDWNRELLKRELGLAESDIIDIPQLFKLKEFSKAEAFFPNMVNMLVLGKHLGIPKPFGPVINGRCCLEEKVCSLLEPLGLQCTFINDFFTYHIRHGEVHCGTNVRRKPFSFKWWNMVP

Take `Cn1c(-c2cc3ccc4cc[nH]c4c3n2CC2CCC2)nc2cc(C(=O)N3C[C@H]4CC[C@@H]3[C@@H]4N)cc(F)c21` [Example 165, ((1R,4R,7R)-7-amino-2-azabicyclo[2.2.1]heptan-2-yl)(2-(1-(cyclobutylmethyl)-1,8-dihydropyrrolo[3,2-g]indol-2-yl)-7-fluoro-1-methyl-1H-benzo[d]imidazol-5-yl)methanone]: under setting [1], the IC50 (usually the concentration that inhibits the measured activity by half) is ≤ 0.1 µM.

In the case of `CC1COc2cccc3cc(-c4nc5cc(C(=O)N6CCC[C@@H](N)C6)ccc5n4C)n1c23` (stereo partly drawn) [B, reference compound], under setting [2], the IC50 is 7.28 µM.

For the compound `CCC1CN(CCCO)c2cccc3cc(-c4nc5cc(C(=O)N6C[C@H]7CC[C@@H]6[C@@H]7N)c(F)c(F)c5n4C)n1c23` (stereo partly drawn) [Example 78, ((1R,4R,7R)-7-amino-2-azabicyclo[2.2.1]heptan-2-yl)(2-(3-ethyl-1-(3-hydroxypropyl)-2,3-dihydro-1H-pyrrolo[1,2,3-de]quinoxalin-5-yl)-6,7-difluoro-1-methyl-1H-benzo[d]imidazol-5-yl)methanone], the IC50 under setting [1] is 0.5 to 5 µM.

Turning to `Cc1nnc2c3c(ccn12)cc(-c1nc2cc(C(=O)N4C[C@H]5CC[C@@H]4[C@@H]5N)cc(F)c2n1C)n3CC1CC1` [Example 159, [(1R,4R,7R)-7-amino-2-azabicyclo[2.2.1]heptan-2-yl]-[2-[12-(cyclopropylmethyl)-5-methyl-3,4,6,12-tetrazatricyclo[7.3.0.02,6]dodeca-1(9), 2,4,7,10-pentaen-11-yl]-7-fluoro-1-methyl-benzimidazol-5-yl]methanone], under setting [1], the IC50 was 0.5 to 5 µM.

On to `COc1cc(C(=O)N2CCC[C@@H](N)C2)cc2nc(-c3cc4cccc5c4n3CCN5CCCNC(C)=O)n(C)c12` [Example 3, (R)—N-(3-(5-(5-(3-aminopiperidine-1-carbonyl)-7-methoxy-1-methyl-1H-benzo[d]imidazol-2-yl)-2,3-dihydro-1H-pyrrolo[1,2,3-de]quinoxalin-1-yl)propyl)acetamide], for which the IC50 under setting [1] lay in the range of 0.5 to 5 µM.

As to `CC[C@H]1[C@H](C)Nc2cccc3cc(-c4nc5cc(C(=O)N6C[C@H]7CC[C@@H]6[C@@H]7N)cc(F)c5n4C)n1c23` [Example 134, trans-((1R,4R,7R)-7-amino-2-azabicyclo[2.2.1]heptan-2-yl)(2-(3-ethyl-2-methyl-2,3-dihydro-1H-pyrrolo[1,2,3-de]quinoxalin-5-yl)-7-fluoro-1-methyl-1H-benzo[d]imidazol-5-yl)methanone], the IC50 under setting [1] was > 5 µM.

As to `CCC1CC(=O)c2cccc3cc(-c4nc5cc(C(=O)N6C[C@H]7CC[C@@H]6[C@@H]7N)cc(F)c5n4C)n1c23` (stereo partly drawn) [Example 139, 2-(5-((1R,4R,7R)-7-amino-2-azabicyclo[2.2.1]heptane-2-carbonyl)-7-fluoro-1-methyl-1H-benzo[d]imidazol-2-yl)-4-ethyl-4,5-dihydro-6H-pyrrolo[3,2,1-ij]quinolin-6-one], the IC50 under setting [1] is 0.5 to 5 µM.

Consider `CCn1c(-c2cc3cccc4c3n2C(C)CN4CCCO)nc2cc(C(=O)N3C[C@H](N)C[C@@H](F)C3)cc(OC)c21` (stereo partly drawn) [Example 66, ((3R,5R)-3-amino-5-fluoropiperidin-1-yl)(1-ethyl-2-(1-(3-hydroxypropyl)-3-methyl-2,3-dihydro-1H-pyrrolo[1,2,3-de]quinoxalin-5-yl)-7-methoxy-1H-benzo[d]imidazol-5-yl)methanone], for which the IC50 under setting [1] fell in the range of 0.5 to 5 µM.

As to `COc1cc(C(=O)N2C[C@H](N)C[C@@H](F)C2)cc2nc(-c3cc4cccc5c4n3CCN5CCCO)n(CC(F)F)c12` [Example 51, ((3R,5R)-3-amino-5-fluoropiperidin-1-yl)(1-(2,2-difluoroethyl)-2-(1-(3-hydroxypropyl)-2,3-dihydro-1H-pyrrolo[1,2,3-de]quinoxalin-5-yl)-7-methoxy-1H-benzo[d]imidazol-5-yl)methanone], under setting [1], the IC50 was 0.1 to 0.5 µM.

As for `COc1cc(C(=O)N2C[C@H](N)C[C@@H](F)C2)cc2nc(-c3cc4cccc5c4n3CCN5C(=O)CO)n(C)c12` [Example 28, 1-(5-(5-((3R,5R)-3-amino-5-fluoropiperidine-1-carbonyl)-7-methoxy-1-methyl-1H-benzo[d]imidazol-2-yl)-2,3-dihydro-1H-pyrrolo[1,2,3-de]quinoxalin-1-yl)-2-hydroxyethan-1-one], the IC50 under setting [1] lay within 0.5 to 5 µM.

Consider `CCn1cc(Cn2c(-c3cc4cccc5c4n3CCN5CCO)nc3cc(C(=O)N4C[C@H](N)C[C@@H](F)C4)cc(F)c32)cn1` [Example 39, ((3R,5R)-3-amino-5-fluoropiperidin-1-yl)(1-((1-ethyl-1H-pyrazol-4-yl)methyl)-7-fluoro-2-(1-(2-hydroxyethyl)-2,3-dihydro-1H-pyrrolo[1,2,3-de]quinoxalin-5-yl)-1H-benzo[d]imidazol-5-yl)methanone], for which the IC50 under setting [1] was in the range of 0.1 to 0.5 µM.

With `COc1cc(C(=O)N2C[C@H](N)CC(F)(F)C2)cc2nc(-c3cc4cccc5c4n3CCN5CCCO)n(C)c12` [Example 18, (R)-(5-amino-3,3-difluoropiperidin-1-yl)(2-(1-(3-hydroxypropyl)-2,3-dihydro-1H-pyrrolo[1,2,3-de]quinoxalin-5-yl)-7-methoxy-1-methyl-1H-benzo[d]imidazol-5-yl)methanone], the IC50 under setting [1] lay within 0.5 to 5 µM.

Consider `COc1cc(C(=O)N2CCC3CC3(N)C2)cc2nc(-c3cc4cccc5c4n3CCN5CCCO)n(CC3CC3)c12` (stereo not drawn) [Example 55, (1-amino-3-azabicyclo[4.1.0]heptan-3-yl)(1-(cyclopropylmethyl)-2-(1-(3-hydroxypropyl)-2,3-dihydro-1H-pyrrolo[1,2,3-de]quinoxalin-5-yl)-7-methoxy-1H-benzo[d]imidazol-5-yl)methanone], for which the IC50 under setting [1] fell in the range of 0.5 to 5 µM.

For `Cn1c(-c2cc3ccc4c(c3n2CC2CC2)CCNC4)nc2cc(C(=O)N3C[C@H]4CC[C@@H]3[C@@H]4N)cc(F)c21` [Example 151, ((1R,4R,7R)-7-amino-2-azabicyclo[2.2.1]heptan-2-yl)(2-(1-(cyclopropylmethyl)-6,7,8,9-tetrahydro-1H-pyrrolo[2,3-f]isoquinoline-2-yl)-7-fluoro-1-methyl-1H-benzo[d]imidazol-5-yl)methanone], the IC50 under setting [1] lay in the range of 0.5 to 5 µM.

Turning to `COc1cc(C(=O)N2C[C@H](N)C[C@@H](F)C2)cc2nc(-c3cc4cccc5c4n3CCN5CCCO)n(Cc3ccc(F)cc3)c12` [Example 36, ((3R,5R)-3-amino-5-fluoropiperidin-1-yl)(1-(4-fluorobenzyl)-2-(1-(3-hydroxypropyl)-2,3-dihydro-1H-pyrrolo[1,2,3-de]quinoxalin-5-yl)-7-methoxy-1H-benzo[d]imidazol-5-yl)methanone], the IC50 under setting [1] was 0.1 to 0.5 µM.

For `Cn1c(-c2cc3cccc4c3n2CCO4)nc2cc(C(=O)N3CCC[C@@H](N)C3)ccc21` [A, reference compound], the IC50 under setting [2] was ~15.2 µM and 15.2 µM.

As for `COc1cc(C(=O)N2CCC[C@@H](N)C2)cc2nc(-c3cc4cccc5c4n3CCN5CCCN)n(C)c12` [Example 7], the IC50 under setting [1] fell in the range of 0.5 to 5 µM.

With `CCC1CNc2nccc3cc(-c4nc5cc(C(=O)N6C[C@H]7CC[C@@H]6[C@@H]7N)cc(F)c5n4C)n1c23` (stereo partly drawn) [Example 135, ((1R,4R,7R)-7-amino-2-azabicyclo[2.2.1]heptan-2-yl)(2-(3-ethyl-4,5-dihydro-3H-2a, 5,6-triazaacenaphthylen-2-yl)-7-fluoro-1-methyl-1H-benzo[d]imidazol-5-yl)methanone], the IC50 under setting [1] was > 5 µM.

On to `COc1cc(C(=O)N2C[C@H](N)C[C@@H](F)C2)cc2nc(-c3cc4cccc5c4n3CCN5C(=O)CC#N)n(C)c12` [Example 30, 3-(5-(5-((3R,5R)-3-amino-5-fluoropiperidine-1-carbonyl)-7-methoxy-1-methyl-1H-benzo[d]imidazol-2-yl)-2,3-dihydro-1H-pyrrolo[1,2,3-de]quinoxalin-1-yl)-3-oxopropanenitrile], for which the IC50 under setting [1] was > 5 µM.

Consider `CCC1CN(CCCO)c2cccc3cc(-c4nc5cc(C(=O)N6C[C@H]7CC[C@@H]6[C@@H]7N)cc(F)c5n4Cc4ccco4)n1c23` (stereo partly drawn) [Example 93, ((1R,4R,7R)-7-amino-2-azabicyclo[2.2.1]heptan-2-yl)(2-(3-ethyl-1-(3-hydroxypropyl)-2,3-dihydro-1H-pyrrolo[1,2,3-de]quinoxalin-5-yl)-7-fluoro-1-(furan-2-ylmethyl)-1H-benzo[d]imidazol-5-yl)methanone], for which the IC50 under setting [1] is 0.1 to 0.5 µM.

Take `COc1cc(C(=O)N2CC3C(N)C3C2)cc2nc(-c3cc4cccc5c4n3CCN5CCCO)n(CC3CC3)c12` (stereo not drawn) [Example 54, (6-amino-3-azabicyclo[3.1.0]hexan-3-yl)(1-(cyclopropylmethyl)-2-(1-(3-hydroxypropyl)-2,3-dihydro-1H-pyrrolo[1,2,3-de]quinoxalin-5-yl)-7-methoxy-1H-benzo[d]imidazol-5-yl)methanone]: under setting [1], the IC50 was > 5 µM.

For the origin of these results see patent US20250136607A1 (REGOR PHARMACEUTICALS, INC., priority 2021, published 2025).
